Test results reported in PubChem BioAssay AID330 (DTP/NCI, 2004).
“And” between values parts separate entries of the source, which are not always exact repeats. Equal values may be shown once. Inconclusive results and toxic doses are left out. How the source made its calls: active means survival T/C of 150% or more; inactive means T/C below 125% in these data.

Test system: P388 leukemia ip, CD2F1 mice, survival T/C
Test: NCI In Vivo Anticancer Drug Screen. Data for tumor model P388 Leukemia (intraperitoneal) in CD2F1 (CDF1) mice
Details: endpoint: median survival time, higher = longer survival
Procedure, shortened: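 Mice carrying the transplanted tumor received test compound or vehicle. Survival was recorded in each group, and the value is the treated-group measurement divided by that of the vehicle-treated control group.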

[1] = dose: 100.0 mg/kg/injection, schedule: Q04DX002 (ip), vehicle: Klucel (hydroxypropylcellulose) (HPC)
[2] = dose: 200.0 mg/kg/injection, schedule: Q04DX002 (ip), vehicle: Klucel (hydroxypropylcellulose) (HPC)
[3] = dose: 60.0 mg/kg/injection, schedule: Q01DX005 (ip), vehicle: saline with Tween-80
[4] = dose: 120.0 mg/kg/injection, schedule: Q01DX005 (ip), vehicle: saline with Tween-80
[5] = dose: 50.0 mg/kg/injection, schedule: Q01DX009 (ip), vehicle: saline with Tween-80
[6] = dose: 100.0 mg/kg/injection, schedule: Q01DX009 (ip), vehicle: saline with Tween-80
[7] = dose: 200.0 mg/kg/injection, schedule: Q01DX009 (ip), vehicle: saline with Tween-80

Measured: T/C

CC(C)(C)N1COCO[C@H]2CCC[C@@H]21
inactive: dose: 25.0 mg/kg/injection, schedule: Q04DX002 (ip), vehicle: Klucel (hydroxypropylcellulose) (HPC) 100 % of control | dose: 50.0 mg/kg/injection, schedule: Q04DX002 (ip), vehicle: Klucel (hydroxypropylcellulose) (HPC) 102 % of control | [1] 114 % of control | [2] 100 % of control and 123 % of control

Nc1ccccc1SC(C[N+](=O)[O-])c1ccc2c(c1)OCO2 (stereo unspecified)
inactive: [3] 115 % of control | [4] 114 % of control

CN=C(NC)Nc1nc(-c2ccccc2)c(-c2ccccc2)[nH]1
inactive: dose: 12.5 mg/kg/injection, schedule: Q04DX002 (ip), vehicle: saline with Tween-80 105 % of control | dose: 25.0 mg/kg/injection, schedule: Q04DX002 (ip), vehicle: saline with Tween-80 100 % of control | dose: 50.0 mg/kg/injection, schedule: Q04DX002 (ip), vehicle: saline with Tween-80 107 % of control

NC(=S)c1ccc(/C=N/c2nc3ccccc3s2)cc1
inactive: dose: 25.0 mg/kg/injection, schedule: Q01DX001 (ip), vehicle: Klucel (hydroxypropylcellulose) (HPC) 103 % of control | dose: 50.0 mg/kg/injection, schedule: Q01DX001 (ip), vehicle: Klucel (hydroxypropylcellulose) (HPC) 97 % of control | dose: 100.0 mg/kg/injection, schedule: Q01DX001 (ip), vehicle: Klucel (hydroxypropylcellulose) (HPC) 96 % of control and 97 % of control | dose: 200.0 mg/kg/injection, schedule: Q01DX001 (ip), vehicle: Klucel (hydroxypropylcellulose) (HPC) 97 % of control | dose: 400.0 mg/kg/injection, schedule: Q01DX001 (ip), vehicle: Klucel (hydroxypropylcellulose) (HPC) 97 % of control

COc1cc2c(cc1C/C=C/c1cc(OC)c(OC)c(OC)c1)OCO2
inactive: [3] 93 % of control | [4] 87 % of control | dose: 240.0 mg/kg/injection, schedule: Q01DX005 (ip), vehicle: saline with Tween-80 86 % of control

NC(=S)c1ccc(C=NCc2ccccc2)cc1
inactive: [1] 100 % of control | [2] 100 % of control | dose: 400.0 mg/kg/injection, schedule: Q04DX002 (ip), vehicle: Klucel (hydroxypropylcellulose) (HPC) 100 % of control

CC(C)N1COC2Cc3ccccc3CC21 (stereo unspecified)
inactive: dose: 6.25 mg/kg/injection, schedule: Q01DX005 (ip), vehicle: saline 99 % of control | dose: 12.5 mg/kg/injection, schedule: Q01DX005 (ip), vehicle: saline 101 % of control | dose: 25.0 mg/kg/injection, schedule: Q01DX005 (ip), vehicle: saline 101 % of control and 110 % of control | dose: 50.0 mg/kg/injection, schedule: Q01DX005 (ip), vehicle: saline 117 % of control and 120 % of control and 121 % of control

CC1(C(=O)OCc2ccccc2)NCCS1 (stereo unspecified)
inactive: [5] 100 % of control | [6] 96 % of control | [7] 109 % of control

Cc1ccc(SCc2cn(C3CC(O)C(CO)O3)c(=O)[nH]c2=O)cc1 (stereo unspecified)
inactive: dose: 60.0 mg/kg/injection, schedule: Q01DX005 (ip), vehicle: Klucel (hydroxypropylcellulose) (HPC) 99 % of control | dose: 120.0 mg/kg/injection, schedule: Q01DX005 (ip), vehicle: Klucel (hydroxypropylcellulose) (HPC) 95 % of control | dose: 240.0 mg/kg/injection, schedule: Q01DX005 (ip), vehicle: Klucel (hydroxypropylcellulose) (HPC) 92 % of control

CCc1c2oc(C(=O)c3ccc(Cl)cc3)cc2n2ccccc12
inactive: dose: 60.0 mg/kg/injection, schedule: Q01DX005 (ip), vehicle: Klucel + Tween-80 89 % of control | dose: 120.0 mg/kg/injection, schedule: Q01DX005 (ip), vehicle: Klucel + Tween-80 86 % of control

O=C(NC(CO)C(O)c1ccc(N=Nc2cccc3ccccc23)cc1)C(Cl)Cl (stereo unspecified)
inactive: [6] 95 % of control | [7] 104 % of control | dose: 400.0 mg/kg/injection, schedule: Q01DX009 (ip), vehicle: saline with Tween-80 104 % of control

C=CCc1c(O)c(OC)cc2c1C(=O)CCCC2
inactive: dose: 100.0 mg/kg/injection, schedule: Q01DX009 (ip), vehicle: Klucel (hydroxypropylcellulose) (HPC) 100 % of control | dose: 200.0 mg/kg/injection, schedule: Q01DX009 (ip), vehicle: Klucel (hydroxypropylcellulose) (HPC) 94 % of control | dose: 400.0 mg/kg/injection, schedule: Q01DX009 (ip), vehicle: Klucel (hydroxypropylcellulose) (HPC) 94 % of control

COC(CN1C(=O)CSC1=S)OC
inactive: [5] 114 % of control | [6] 117 % of control | [7] 117 % of control

CCOC(=O)CC(SP(=S)(OC)OC)C(=O)OCC (stereo unspecified)
inactive: [5] 103 % of control | [6] 112 % of control | [7] 107 % of control

CCN(CC)c1ccc2cc(S(=O)(=O)c3ccccc3)c(=O)oc2c1
inactive: [3] 91 % of control | [4] 86 % of control
